Patent US7138486B2, “Insulinotropic hormone derivatives and uses thereof” (The General Hospital Corporation, priority 1986, dated 2006)
Where no end group is shown, it is not given here.

How the values were obtained:
RIN 1046-38 cells [1] = test: Levels of insulin, actin and angiotensinogen mRNAs by Northern blot densitometry; assay type: cell-based, rat
Protocol: Rat insulinoma cells of cell line RIN-38 were derived from a continuous islet cell line, RIN-r, which was established from a transplantable rat islet cell tumor (Gazdar, A. F., et al., Proc. Natl. Acad. Sci., USA 77:3519–3523 (1980)). The cells were maintained in DMEM (Gibco) at a glucose concentration of 4,500 mg/L and supplemented with 10% heat-inactivated fetal bovine serum (Gibco), 100 U/ml of penicillin and 100 μg/ml of streptomycin. Incubations were carried out at 37° C. in 95% air:5% CO2. Cells grown in the above manner were washed and resuspended in DMEM (Gibco) containing 0.1% bovine serum albumin and 25 mM glucose. […] Incubations were for six hours.
Messenger RNAs specific for insulin, actin, or angiotensinogen were identified by Northern hybridization as follows: cellular RNA was extracted from solid tumors and cells by homogenization in guanidine thiocyanate and sedimentation through a cesium chloride cushion. Poly A^+ RNA was isolated by oligo dT cellulose chromatography (Aviv, H., et al., Proc. Natl. Acad. Sci., USA 69:1408–1412 (1972)). Twenty micrograms of total RNA from each sample were fractionated by size on a 1.4% agarose gel after denaturation in glyoxal, followed by electrotransfer to a nylon membrane (Nytran; Schleicher and Schuell). Blotted membranes were baked for two hours at 80° C. under vacuum, prehybridized in 1M NaCl/1% SDS/10% Dextran sulfate at 50° C. overnight and hybridized at the same temperature for 24 h after addition of the labeled probes (3–5×10^5 cpm/ml); they were then washed at 55° C. twice in 1×SCC (0.15M NaCl/0.015 M Na citrate)/1% SDS), and exposed to X-ray film for varying times at −70° C. with an intensifying screen. The relative amounts of the specific mRNA were determined by microdensitometry.

RIN 1046-38 cells [2] = test: cAMP formation in insulinoma cell line; assay type: cell-based, rat; conditions: for Effect on cAMP levels: 0.5 μM; for Effects on the formation of cAMP: at 5 nM and 50 pM
Protocol: Cells were grown as described in Example 1, in […] culture dishes. Varying amounts of glucagon-like peptides were added to culture wells in triplicate. […] Twenty microliters from each culture well was assayed.
Insulinotropic activity was monitored as described by Mojsov, S., et al., (J. Clin. Invest. 79:616–619 (1987)) and Drucker, D. J., et al., (Proc. Natl Acad. Sci. 84:3434–3438 (1987)), both of which references are incorporated by reference herein. […]

rat pancreas = test: Pancreatic perfusion assay of insulinotropic activity (effluent insulin); assay type: in vivo; conditions: for Insulinotropic activity: 10^−11 M, five minute perfusions, FIG. 4; for Mean perfusate insulin concentration: 10^−9 M for 5 minutes; for Insulinotropic activity (perfusate insulin): Table 6
Protocol: The in situ isolated perfused rat pancreas preparation was a modification of the method of Penhos, J. C., el al. (Diabetes 18:733–738 (1969)). In accordance with such a method, fasted rats (preferably male Charles River strain albino rats), weighing 350–600 g, are anesthetized with an intraperitoneal injection of Amytal Sodium (Eli Lilly and Co., 160 ng/kg). Renal, adrenal, gastric, and lower colonic blood vessels are ligated. The entire intestine is resected except for about four cm of duodenum and the descending colon and rectum. […] The perfusate is preferably a modified Krebs-Ringer bicarbonate buffer with 4% dextran T70 and 0.2% bovine serum albumin (fraction V), and is preferably bubbled with 95% O2 and 5% CO2. A nonpulsatile flow, four-channel roller-bearing pump (Buchler polystatic, Buchler Instruments Division, Nuclear-Chicago Corp.) is preferably used, and a switch from one perfusate source to another is preferably accomplished by switching a three-way stopcock.
Isolated rat pancreas was prepared according to the method of Weir, G. C., et al., (J. Clin. Invest. 54:1403–1412 (1974)), and Penkos, J. C., et al. (Diabetes 18:733–738 (1969)). The perfusate contained bicarbonate buffer (pH 7.4) and 120 mg/dl glucose, 4% dextran T-70, and 0.2% bovine serum albumin, and was equilibrated with 95% oxygen and 5% carbon dioxide. The first 20 minutes of each perfusion was an equilibrium period. After this initial period, aliquots of perfusate were removed every 2–4 min for additional 20 min, thus allowing the system to equilibrate for a total of 40 min. The perfusion, including any added insulinotropic peptide, was for 6 min and samples were collected at 1-min intervals. When more than one perfusion was to be performed, the peptide perfusions were followed by equilibration periods of 20 min, during which four samples 5 min apart were collected. […] Again, samples 1 min apart were collected. The entire perfusion time was between 70 and 85 min.
In each aliquot of perfusate obtained, insulin was determined by radioimmunoassay. […] At one minute intervals, pancreas effluent insulin levels in picograms/ml were determined by radioimmunoassay (as described above).

βTC-1 cells [3] = test: Cellular insulin content by radioimmunoassay; assay type: cell-based, mouse; conditions: 0.5 mM; 24 hours
Protocol: Two days before the experiment commenced, cells were plated into 35 mm plates. Media were changed to RPMI 1640 supplemented with 0.1% human serum albumin and 0.1% bacitracin. […] After incubation for 24 hours under these conditions, cells were washed three times with PBS and harvested in 1.5 ml buffer containing 150 mM NaCl, 1 mM EDTA and 40 mM Tris/Cl pH 7.4 and resuspended in 200 μl PBS. Fifty μl of this cell suspension were resuspended in 1 ml 1 M acetic acid and extracted for 16 hours at 4° C. Aliquots (2 and 20 μl) were lyophilized and reconstituted in insulin-RIA buffer. The cell number of each plate was controlled by determination of total protein in the initial cell lysate. […] Insulin was measured with a radioimmunoassay system using an antiserum raised in rabbits against pork insulin and pork insulin as the standard. […] Data are presented as fold-increase of insulin content per well above the control experiments (no treatment).

βTC-1 cells [4] = test: Proinsulin biosynthesis ([3H]leucine labelling); assay type: cell-based, mouse; conditions: 0.5 mM; 6 hours labeling
Protocol: βTC-1 cells (Efrat et al., Proc. Natl. Acad. Sci. (USA) 85:9037–9041 (1988)) were grown in a humidified atmosphere at 37° C. in RPMI 1640 medium supplemented with 10% (vol/vol) fetal bovine serum, 5% (vol/vol) horse serum, 100 U/ml penicillin and 100 μg/ml streptomycin. Media were changed after three days and cells were split 1:3 after six days.
βTC-1 cells were plated into 35 mm plates and grown for two days to reach 80–90% confluency. During a 6 hour labeling period cells were incubated in 1 ml RPMI 1640 supplemented with 0.1% human serum albumin, 0.1% bacitracin and 50 μCi[^3H]leucine. Forskolin, IBMX, 8-Bromo-cAMP and GLP-1(7-37) were added from stock solutions as described (see “cell transfection”). Cells were harvested in PBS and lysed by three freeze-thaw cycles. Immunoreactive proinsulin was precipitated with an antiserum raised in rabbits against pork insulin that was coupled to a 10% suspension of bacterial lysates (Saureus) containing protein A. Radioactivity contained in the resulting pellets was counted using a lliquid scintillation counter. Incorporation of [^3H]leucine into total protein was measured in trichloroacetic acid precipitates of the cells. None of the agents tested had any effects on [^3H]leucine incorporation into TCA precipitable proteins. Data are expressed as fold-induction of proinsulin biosynthesis above those in the control experiments (no treatment).

[5] = system: rat insulin I gene promoter in βTC-1 cells; test: CAT activity in cells transiently transfected with −410 Ins-CAT plasmid; assay type: cell-based, mouse; conditions: 0.5 mM; 24 hours
Protocol: Cells of two 80–90% confluent 150 mm culture plates were trypsinized and transfected in solution in one tube with 15 μg of indicator plasmid using the DEAE-dextran method. The plasmid contained 410 bp of the rat insulin I gene promoter fused to the transcriptional reporter gene encoding the bacterial enzyme chloramphenicol-acetyltransferase (CAT). […] Subsequently cells were plated into 18 wells of six well plates. […] Thereby, differences in transfection deficiencies reflected in CAT activities were normalized against protein concentrations as well as the respective control experiments. After transfection cells were incubated in RPMI 1640 supplemented with 0.1% human serum albumin and 0.1% bacitracin. […] After extraction with ethylacetate (1 ml) acetylated and non-acetylated ^14C-chloramphenicol were separated by thin-layer chromatography (chloroform:methanol 9:1), identified by autoradiography and the respective spots were scraped from the plates and radioactivity was counted in a scintillation counter.

cellular receptors = test: cell-based or functional assay

## GLP-1-(1-36)-NH2: GLP-1(1-36 des-gly-arg amide); Peninsula Laboratories (HDEFERHAEGTFTSDVSSYLEGQAAKEFIAWLVKGR-NH2; UniProt P01275 92-127, looked up, fragment)
RIN 1046-38 cells [1]; Experiment 1, peptide 5 × 10^−7 M, control 0.68 ± 0.03
  Actin mRNA level: 0.87 ± 0.19 Arbitrary densitometric units
RIN 1046-38 cells [1]; Experiment 1, peptide 5 × 10^−7 M, control 1.28 ± 0.18, mean ± SEM
  Insulin mRNA level: 2.78 ± 0.51^4 Arbitrary densitometric units
RIN 1046-38 cells [1]; Experiment 1, peptide 5 × 10^−7 M, control 2.67 ± 0.31
  Angiotensinogen mRNA level: 2.56 ± 0.22 Arbitrary densitometric units
RIN 1046-38 cells [2]
  Effect on cAMP levels: increased cAMP levels
  Effects on the formation of cAMP: negligible
RIN 1046-38 cells [2]; Exp. 4, 5 × 10^−7 M, control 41.3 ± 7.1
  cAMP: 70.2 ± 2.8 (b) fmol

## His-Ala-Glu-Gly-Thr-Phe-Thr-Ser-Asp-Val-Ser-Ser-Tyr-Leu-Glu-Gly-Gln-Ala-Ala-Lys-Glu-Phe-Ile-Ala-Trp-Leu-Val-Lys-Gly-Arg (HAEGTFTSDVSSYLEGQAAKEFIAWLVKGR; printed: His-Ala-Glu-Gly-Thr-Phe-Thr-Ser-Asp-Val-Ser-Ser-Tyr-Leu-Glu-Gly-Gln-Ala-Ala-Lys-Glu-Phe-Ile-Ala-Trp-Leu-Val-Lys-Gly-Arg) [GLP-1(7-36), GLP-1 polypeptide having all amino acids from number 7 through number 36]
Rat pancreas; 10^−11M
  Insulinotropic activity compared with GLP-1(7-37): equiavlent to GLP-1(7-37)

## GLP-2: glucagon-like peptide 2, 34 amino acid residues long
RIN 1046-38 cells [1]
  Effects on insulin mRNA levels: no effects
RIN 1046-38 cells [2]; even at 10^−11 M
  Stimulation of cAMP levels: neither GLP-1(1-37) nor GLP-2 (GLP-2) exhibited such activity

## GLP-1(7-34): derivative of GLP-1(1-37), amino acids 7-34 (HAEGTFTSDVSSYLEGQAAKEFIAWLVK; Glucagon-like peptide 1; UniProt P01275 98-125, looked up, fragment)
Rat pancreas
  Insulinotropic activity: detectable insulinotropic activity

## glucagon
RIN 1046-38 cells [1]
  Effects on insulin mRNA levels: no effects
Rat pancreas; glucose 6.6 mM, absence of GLP-1 (8-37)
  Mean perfusate insulin concentration: 4.98 ± 0.96 ng/mL
Rat pancreas; glucose 6.6 mM, presence of 10^−8 M GLP-1 (8-37), N=4
  Mean perfusate insulin concentration: 5.26 ± 0.89 ng/mL
Rat pancreas; 10^−9 M, glucose 6.6 mM
  Peak insulin release: 4.5 ± 0.5 ng/mL
Rat pancreas; 10^−11M
  Insulin release: no release
Rat pancreas; pancreatic B cell secretagogue
  Concentration at which an insulinotropic effect is still mediated (as low as): 10^−9 M
RIN 1046-38 cells [2]
  Effect on cAMP levels: increased cAMP levels
  Effects on the formation of cAMP: negligible
RIN 1046-38 cells [2]; Exp. 1, 5 × 10^−9 M
  cAMP: 20.1 ± 2.5 (a) fmol
RIN 1046-38 cells [2]; Exp. 1, 5 × 10^−10 M
  cAMP: 16.5 ± 2.0 (NS) fmol
RIN 1046-38 cells [2]; Exp. 1, 5 × 10^−11 M
  cAMP: 13.2 ± 1.0 (NS) fmol
RIN 1046-38 cells [2]; Exp. 1, 5 × 10^−12 M, per 1/50th of cell extract per plate, control 15.4 ± 0.7, mean ± SEM
  cAMP: 18.7 ± 2.2 (NS) fmol
RIN 1046-38 cells [2]; Exp. 2, 5 × 10^−7 M
  cAMP: 93.1 ± 2.9 (c) fmol
RIN 1046-38 cells [2]; Exp. 2, 5 × 10^−8 M, control 43.6 ± 4.1
  cAMP: 44.8 ± 1.6 (NS) fmol
RIN 1046-38 cells [2]; Table 8, 10^−6 M
  cAMP formation: 92 ± 9 f-mole/5 ul of cell extract/15 min exposure to peptide

## CC(C)Cn1c(=O)n(C)c(=O)c2[nH]cnc21 [IBMX]
βTC-1 cells [3]
  Increase of total cellular insulin content: 1.30±0.12 fold
βTC-1 cells [4]
  Increase of proinsulin biosynthesis: 1.53±0.06 fold
[5]
  Increase of CAT activity: 2.6±0.16 fold

## GLP-1(7-35): derivative of GLP-1(1-37), amino acids 7-35 (HAEGTFTSDVSSYLEGQAAKEFIAWLVKG; Glucagon-like peptide 1; UniProt P01275 98-126, looked up, fragment)
Rat pancreas
  Insulinotropic activity: detectable insulinotropic activity

## des-7 histidine GLP-1(7-37) (AEGTFTSDVSSYLEGQAAKEFIAWLVKGRG) [GLP-1 (8-37)]
Rat pancreas; perfusate glucose 6.6 mM, 10^−7 M
  Effect on insulin secretion: weak insulinotropic activity
Rat pancreas; perfusate glucose 6.6 mM, 10^−11, 10^−9, or 10^−8 M
  Effect on insulin secretion: no detectable effect
Rat pancreas; perfusate glucose 16.7 mM, 10^−9 M
  Effect on insulin secretion: no effect
RIN 1046-38 cells [2]; Table 8, 10^−5 M
  cAMP formation: 77 ± 11 f-mole/5 ul of cell extract/15 min exposure to peptide
RIN 1046-38 cells [2]; Table 8, 10^−6 M
  cAMP formation: 31 ± 3 f-mole/5 ul of cell extract/15 min exposure to peptide
RIN 1046-38 cells [2]; Table 8, 10^−7 M
  cAMP formation: 24 ± 2 f-mole/5 ul of cell extract/15 min exposure to peptide
RIN 1046-38 cells [2]; Table 8, 10^−8 M, no peptide 27 ± 2, mean ± S.E.M.
  cAMP formation: 28 ± 0.8 f-mole/5 ul of cell extract/15 min exposure to peptide
RIN 1046-38 cells [2]; cAMP formation
  Insulinotropic activity compared with glucagon: comparable to that of glucagon

## GLP-1(7-36)-NH2: GLP-1(7-36) with the C-terminal residue, arginine, in amidated form as arginineamide
Rat pancreas; time +1 minute
  Insulinotropic activity (perfusate insulin): 4550 ± 703
Rat pancreas; time +2 minutes
  Insulinotropic activity (perfusate insulin): 3330 ± 637
Rat pancreas; time +3 minutes
  Insulinotropic activity (perfusate insulin): 2500 ± 564
Rat pancreas; time −1 minute (before peptide), 5 minute perfusion
  Insulinotropic activity (perfusate insulin): 985 ± 275
Rat pancreas; perfused rat pancreas
  Potency as secretagogue, 7-37 form versus 7-36-amide: equally potent secretagogues
RIN 1046-38 cells [2]; IBMX 100 uM, peptide 10^−7 M
  cAMP formation: 358 ± 32 fmoles/10 ul of cell extract
RIN 1046-38 cells [2]; IBMX 100 uM, peptide 10^−9 M
  cAMP formation: 225 ± 16 fmoles/10 ul of cell extract
RIN 1046-38 cells [2]; IBMX 100 uM, peptide 10^−11 M, 10 minutes, control 161 ± 10
  cAMP formation: 141 ± 5 fmoles/10 ul of cell extract
RIN 1046-38 cells [2]; IBMX 500 uM, peptide 10^−7 M
  cAMP formation: 1676 ± 113 fmoles/10 ul of cell extract
RIN 1046-38 cells [2]; IBMX 500 uM, peptide 10^−9 M
  cAMP formation: 1199 ± 41 fmoles/10 ul of cell extract
RIN 1046-38 cells [2]; IBMX 500 uM, peptide 10^−11 M, control 540 ± 22
  cAMP formation: 446 ± 38 fmoles/10 ul of cell extract

## HAEGTFTSDVSSYLEGQAAKEFIAWLVKGRG [glucagon-like peptide-1 (7-37)]
Cellular receptors
  cAMP level in RIN-38 cells, 10 min, peptide at 10^-6 M (no peptide: 140): 400
  cAMP level in RIN-38 cells, 10 min, peptide at 10^-7 M (no peptide: 140): 370
  cAMP level in RIN-38 cells, 10 min, peptide at 10^-8 M (no peptide: 140): 494
  cAMP level in RIN-38 cells, 10 min, peptide at 10^-9 M (no peptide: 140): 515
  cAMP level in RIN-38 cells, 10 min, peptide at 10^-10 M (no peptide: 140): 253
  cAMP level in RIN-38 cells, 10 min, peptide at 10^-11 M (no peptide: 140): 533

## HDEFERHAEGTFTSDVSSYLEGQAAKEFIAWLVKGRG [glucagon-like peptide-1 (1-37)]
Cellular receptors
  cAMP level in RIN-38 cells, 10 min, peptide at 10^-6 M (no peptide: 91): 170
  cAMP level in RIN-38 cells, 10 min, peptide at 10^-7 M (no peptide: 91): 120
  cAMP level in RIN-38 cells, 10 min, peptide at 10^-8 M (no peptide: 91): 160
  cAMP level in RIN-38 cells, 10 min, peptide at 10^-9 M (no peptide: 91): 100
  cAMP level in RIN-38 cells, 10 min, peptide at 10^-10 M (no peptide: 91): 90
  cAMP level in RIN-38 cells, 10 min, peptide at 10^-11 M (no peptide: 91): 90
